Where “and” joins values, the source holds several entries; their conditions need not be identical. Equal entries are not always repeated.
Tested on: NCI-H1876 complex spheroid growth, % test/control
Assay: Anticancer human tumor NCI-H1876 cell line growth inhibition [Asc];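 also: compound exposure lasted 7 days starting three days after seeding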;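 as to viability, T/C: 100% = DMSO vehicle control wells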
Conditions: for viability, T/C: stronger effect = lower value; active = viability on the fitted dose curve at most 10% of control; inactive = the rest
In short: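 Tumor cells were grown as complex spheroids with human endothelial cells (HUVEC) and human mesenchymal stem cells as stroma. Agents were tested alone and in combination, in half-log steps down from the clinical Cmax, or from 10 microM where Cmax was unknown.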

[1] = curve of first compound, second compound 0.0316 µM
[2] = curve of first compound, second compound 0.1 µM
[3] = curve of first compound, second compound 0.316 µM
[4] = curve of first compound, second compound 1 µM
[5] = curve of first compound, second compound 3.16 µM
[6] = curve of first compound, second compound 10 µM
[7] = second compound 0.0316 µM, first compound 0.000316 µM
[8] = second compound 0.0316 µM, first compound 0.001 µM
[9] = second compound 0.0316 µM, first compound 0.00316 µM
[10] = second compound 0.0316 µM, first compound 0.01 µM
[11] = second compound 0.0316 µM, first compound 0.0316 µM
[12] = second compound 0.0316 µM, first compound 0.1 µM
[13] = second compound 0.1 µM, first compound 0.000316 µM
[14] = second compound 0.1 µM, first compound 0.001 µM
[15] = second compound 0.1 µM, first compound 0.00316 µM
[16] = second compound 0.1 µM, first compound 0.01 µM
[17] = second compound 0.1 µM, first compound 0.0316 µM
[18] = second compound 0.1 µM, first compound 0.1 µM
[19] = second compound 0.316 µM, first compound 0.000316 µM
[20] = second compound 0.316 µM, first compound 0.001 µM
[21] = second compound 0.316 µM, first compound 0.00316 µM
[22] = second compound 0.316 µM, first compound 0.01 µM
[23] = second compound 0.316 µM, first compound 0.0316 µM
[24] = second compound 0.316 µM, first compound 0.1 µM
[25] = second compound 1 µM, first compound 0.000316 µM
[26] = second compound 1 µM, first compound 0.001 µM
[27] = second compound 1 µM, first compound 0.00316 µM
[28] = second compound 1 µM, first compound 0.01 µM
[29] = second compound 1 µM, first compound 0.0316 µM
[30] = second compound 1 µM, first compound 0.1 µM

NC1CCC(NC2CC2c2ccccc2)CC1 (stereo not given) + Cc1c(S(C)(=O)=O)c(-c2cc(F)cc(N3CCN(c4ccc(NS(=O)(=O)c5ccc(NC(CCN6CCC(C(=O)OCCCP(=O)(O)O)CC6)CSc6ccccc6)c(S(=O)(=O)C(F)(F)F)c5)cc4)CC3)c2)c(-c2ccc(Cl)cc2)n1C(C)C
inactive: viability, T/C [7] 111% | viability, T/C [8] 101% | viability, T/C [9] 99.3% | viability, T/C [10] 106% | viability, T/C [11] 109% | viability, T/C [12] 119% | viability, T/C [13] 114% | viability, T/C [14] 103% | viability, T/C [15] 105% | viability, T/C [16] 110% | viability, T/C [17] 103% | viability, T/C [18] 112% | viability, T/C [19] 99.6% | viability, T/C [20] 103% | viability, T/C [21] 113% | viability, T/C [22] 101% | viability, T/C [23] 120% | viability, T/C [24] 106% | viability, T/C [25] 97.5% | viability, T/C [26] 97.7% | viability, T/C [27] 93.1% | viability, T/C [28] 93.9% | viability, T/C [29] 109% | viability, T/C [30] 114% | viability, T/C (second compound 3.16 µM, first compound 0.000316 µM) 103% | viability, T/C (second compound 3.16 µM, first compound 0.001 µM) 112% | viability, T/C (second compound 3.16 µM, first compound 0.00316 µM) 98.2% | viability, T/C (second compound 3.16 µM, first compound 0.01 µM) 104% | viability, T/C (second compound 3.16 µM, first compound 0.0316 µM) 110% | viability, T/C (second compound 3.16 µM, first compound 0.1 µM) 98.9% | viability, T/C (second compound 10 µM, first compound 0.000316 µM) 118% | viability, T/C (second compound 10 µM, first compound 0.001 µM) 105% | viability, T/C (second compound 10 µM, first compound 0.00316 µM) 101% | viability, T/C (second compound 10 µM, first compound 0.01 µM) 103% | viability, T/C (second compound 10 µM, first compound 0.0316 µM) 111% | viability, T/C (second compound 10 µM, first compound 0.1 µM) 108%
> 100 nM: IC50 [1] | IC50 [2] | IC50 [3] | IC50 [4] | IC50 [5] | IC50 [6]

NC1CCC(NC2CC2c2ccccc2)CC1 (stereo not given) + CNC(C)C(=O)NC1CN(S(=O)(=O)c2cccc(S(=O)(=O)N3CCC4CCC(C(=O)NC(c5ccccc5)c5ccccc5)N4C(=O)C(NC(=O)C(C)NC)C3)c2)CCC2CCC(C(=O)NC(c3ccccc3)c3ccccc3)N2C1=O
> 100 nM: IC50 (curve of first compound, second compound 0.00316 µM) | IC50 (curve of first compound, second compound 0.01 µM) | IC50 [1] | IC50 [2] | IC50 [3] | IC50 [4]
inactive: viability, T/C (second compound 0.00316 µM, first compound 0.000316 µM) 119% | viability, T/C (second compound 0.00316 µM, first compound 0.001 µM) 118% | viability, T/C (second compound 0.00316 µM, first compound 0.00316 µM) 132% | viability, T/C (second compound 0.00316 µM, first compound 0.01 µM) 133% | viability, T/C (second compound 0.00316 µM, first compound 0.0316 µM) 131% | viability, T/C (second compound 0.00316 µM, first compound 0.1 µM) 119% | viability, T/C (second compound 0.01 µM, first compound 0.000316 µM) 119% | viability, T/C (second compound 0.01 µM, first compound 0.001 µM) 121% | viability, T/C (second compound 0.01 µM, first compound 0.00316 µM) 121% | viability, T/C (second compound 0.01 µM, first compound 0.01 µM) 124% | viability, T/C (second compound 0.01 µM, first compound 0.0316 µM) 128% | viability, T/C (second compound 0.01 µM, first compound 0.1 µM) 140% | viability, T/C [7] 116% | viability, T/C [8] 118% | viability, T/C [9] 138% | viability, T/C [10] 125% | viability, T/C [11] 127% | viability, T/C [12] 127% | viability, T/C [13] 121% | viability, T/C [14] 128% | viability, T/C [15] 128% | viability, T/C [16] 128% | viability, T/C [17] 128% | viability, T/C [18] 121% | viability, T/C [19] 131% | viability, T/C [20] 113% | viability, T/C [21] 118% | viability, T/C [22] 130% | viability, T/C [23] 143% | viability, T/C [24] 124% | viability, T/C [25] 122% | viability, T/C [26] 129% | viability, T/C [27] 136% | viability, T/C [28] 131% | viability, T/C [29] 137% | viability, T/C [30] 143%

C=CC(=O)N1CCN(c2nc(=O)n(-c3c(C)ccnc3C(C)C)c3nc(-c4c(O)cccc4F)c(F)cc23)C(C)C1 (stereo not given)
> 10000 nM: IC50 (curve of compound)
inactive: viability, T/C (compound 0.0316 µM) 116% and 95.9% and 101% | viability, T/C (compound 0.1 µM) 99.4% and 96% and 86.8% | viability, T/C (compound 0.316 µM) 106% and 93.2% and 97.1% | viability, T/C (compound 1 µM) 101% (2×) and 100% | viability, T/C (compound 3.16 µM) 113% and 108% and 106% | viability, T/C (compound 10 µM) 110% and 106% and 109%

NC1CCC(NC2CC2c2ccccc2)CC1 (stereo not given)
inactive: viability, T/C (compound 0.000316 µM) 121% and 119% (2×) | viability, T/C (compound 0.001 µM) 108% and 95.7% and 118% | viability, T/C (compound 0.00316 µM) 118% and 112% and 134% | viability, T/C (compound 0.01 µM) 116% and 106% and 120% | viability, T/C (compound 0.0316 µM) 116% and 112% and 131% | viability, T/C (compound 0.1 µM) 107% and 112% and 136%
> 100 nM: IC50 (curve of compound)

CCN1C(C(=O)NC23CCC(C(=O)O)(CC2)CC3)C(c2cccc(Cl)c2F)C2(C(=O)Nc3cc(Cl)ccc32)C12CCCCC2 (stereo not given)
inactive: viability, T/C (compound 0.00949 µM) 109% [middle of 9 runs] | viability, T/C (compound 0.0949 µM) 103% [middle of 9 runs] | viability, T/C (compound 3 µM) 107% [middle of 9 runs]
> 3000 nM: IC50 (compound alone, run of 11/07/2022) | IC50 (curve of compound)

NC(=O)C(=Cn1cnc(-c2cc(C(F)(F)F)cc(C(F)(F)F)c2)n1)c1cncnc1 + Cc1c(S(C)(=O)=O)c(-c2cc(F)cc(N3CCN(c4ccc(NS(=O)(=O)c5ccc(NC(CCN6CCC(C(=O)OCCCP(=O)(O)O)CC6)CSc6ccccc6)c(S(=O)(=O)C(F)(F)F)c5)cc4)CC3)c2)c(-c2ccc(Cl)cc2)n1C(C)C
> 300 nM: IC50 [1] | IC50 [2]
163 nM: IC50 [5]
273 nM: IC50 [3]
149 nM: IC50 [6]
223 nM: IC50 [4]
inactive: viability, T/C (second compound 0.0316 µM, first compound 0.000949 µM) 105% | viability, T/C (second compound 0.0316 µM, first compound 0.003 µM) 102% | viability, T/C (second compound 0.0316 µM, first compound 0.00949 µM) 94.4% | viability, T/C (second compound 0.0316 µM, first compound 0.03 µM) 97.8% | viability, T/C (second compound 0.0316 µM, first compound 0.0949 µM) 105% | viability, T/C (second compound 0.0316 µM, first compound 0.3 µM) 55.1% | viability, T/C (second compound 0.1 µM, first compound 0.000949 µM) 99.3% | viability, T/C (second compound 0.1 µM, first compound 0.003 µM) 112% | viability, T/C (second compound 0.1 µM, first compound 0.00949 µM) 113% | viability, T/C (second compound 0.1 µM, first compound 0.03 µM) 106% | viability, T/C (second compound 0.1 µM, first compound 0.0949 µM) 101% | viability, T/C (second compound 0.1 µM, first compound 0.3 µM) 52.5% | viability, T/C (second compound 0.316 µM, first compound 0.000949 µM) 102% | viability, T/C (second compound 0.316 µM, first compound 0.003 µM) 107% | viability, T/C (second compound 0.316 µM, first compound 0.00949 µM) 91.3% | viability, T/C (second compound 0.316 µM, first compound 0.03 µM) 97.1% | viability, T/C (second compound 0.316 µM, first compound 0.0949 µM) 96.3% | viability, T/C (second compound 0.316 µM, first compound 0.3 µM) 45.8% | viability, T/C (second compound 1 µM, first compound 0.000949 µM) 99.6% | viability, T/C (second compound 1 µM, first compound 0.003 µM) 96.9% | viability, T/C (second compound 1 µM, first compound 0.00949 µM) 89.7% | viability, T/C (second compound 1 µM, first compound 0.03 µM) 96% | viability, T/C (second compound 1 µM, first compound 0.0949 µM) 88.7% | viability, T/C (second compound 1 µM, first compound 0.3 µM) 36.6% | viability, T/C (second compound 3.16 µM, first compound 0.000949 µM) 101% | viability, T/C (second compound 3.16 µM, first compound 0.003 µM) 92.5% | viability, T/C (second compound 3.16 µM, first compound 0.00949 µM) 95.5% | viability, T/C (second compound 3.16 µM, first compound 0.03 µM) 92.9% | viability, T/C (second compound 3.16 µM, first compound 0.0949 µM) 69.4% | viability, T/C (second compound 3.16 µM, first compound 0.3 µM) 27.9% | viability, T/C (second compound 10 µM, first compound 0.000949 µM) 109% | viability, T/C (second compound 10 µM, first compound 0.003 µM) 99.9% | viability, T/C (second compound 10 µM, first compound 0.00949 µM) 90% | viability, T/C (second compound 10 µM, first compound 0.03 µM) 92.5% | viability, T/C (second compound 10 µM, first compound 0.0949 µM) 66.9% | viability, T/C (second compound 10 µM, first compound 0.3 µM) 23.1%

Source: PubChem BioAssay AID1963441 (Molecular Pharmacology Branch, DTP, NCI, 2024)
